Results: patent US9340575B2, “Agonists and antagonists of the urotensinergic system” (INSTITUT NATIONAL DE LA RECHERCHE SCIENTIFIQUE, priority 2011, dated 2016)
“And” between values parts separate entries of the source, which are not always exact repeats. Identical values can stand only once.

Tested on: rat thoracic aorta rings
Assay: Antagonism of UII- or URP-induced contraction of rat aortic ring
Type: cell-based
Protocol: Male rats (Sprague-Dawley, 250-300 g) were killed by CO2 asphyxiation. The thoracic aorta was then cleared of surrounding tissues and excised from aortic arch to the diaphragm. From each vessel, conjunctive tissues were removed and the clean vessel was cut into 4 mm rings. The endothelium was removed by gently rubbing the vessel's intimal surface. All preparations were placed in 5 ml organ baths filled with oxygenated normal Krebs-Henselheit solution. Contractile responses to 40 mM KCl were used as control at the beginning and at the end of each experiment. Agonistic activity was measured by increasing the concentration of the peptide in the organ chamber (3×10^−11-3×10^−6 M). For antagonist behaviour, thoracic aortic rings were first exposed to URP derivative over a period of 15 min, and then cumulative concentration-response curves to hUII, URP or ET-1 (10^−10-3×10^−6 M) were constructed. The amplitude of the contraction induced by each concentration of peptide was expressed as a percentage of the KCl-induced contraction. Finally, the ability of the antagonist to reverse the hUII-induced contraction was also evaluated. Vessels were pre-contracted with 4 nM hUII (pre-determined EC80) and after the maximum contraction was attained, contractile tone was reversed by adding increasing log unit concentrations of URP derivative. […] Binding and functional experiments were performed at least in triplicate and data, expressed as mean±S.E.M, were analyzed using the Prism software (Graph Pad Software, San Diego, Calif.). In all experiments, n represents the total number of animals studied or individual assays performed. The EC50, pEC50, pIC50 values as well as the Emax value were determined from the concentration-response curves using a sigmoidal dose-response fit with variable slope. Non-competitive antagonist affinities (pKb) were determined using the method of Gaddum where equiactive concentrations of agonist, in the absence or presence of URP derivative, were compared in a linear regression. The resulting slope was used to calculate the equilibrium constant Kb using the following equation: Kb=[B]/(slope−1); where [B] is the antagonist concentration. The slope is calculated from the double reciprocal plot of equiactive concentrations of agonist in the presence and absence of antagonist.

SMILES: CC(C)[C@H](NC(=O)[C@@H]1CSSC[C@H](NC(=O)[C@H](C)N)C(=O)N[C@@H](Cc2ccccc2)C(=O)N[C@@H](Cc2ccc(-c3ccccc3)cc2)C(=O)N[C@@H](CCCCN)C(=O)N[C@@H](Cc2ccc(O)cc2)C(=O)N1)C(=O)O [[Bip^4]URP, H-Ala-Cys-Phe-Bip-Lys-Tyr-Cys-Val-OH]
- Effect on URP-induced contraction (in words): but not URP
- Effect on hUII-induced contraction (in words): suppressed the maximum contractile response to hUII in a concentration-dependent manner
- pKb (non-competitive antagonism of hUII) (1 μM [Bip^4]URP, method of Gaddum): 7.15
- Slope of double reciprocal plot of equiactive hUII concentrations (method of Gaddum) (absence and presence of 1 μM [Bip^4]URP): 15.00±0.62 and 15.0±0.6
